# Calls of active or inactive are those of the source. The rule behind the calls is not given here.
# Assays:
# Assay type in all cases: functional, organism-based
# Saccharomyces cerevisiae [1] = assay: Suppression of […] gene in Saccharomyces cerevisiae harboring cdc28-as transfected with 2 uM expression vector TEplac195 at 5 uM using multicopy pool construction by TAG microarray
# Saccharomyces cerevisiae [2] = assay: Suppression of […] gene in Saccharomyces cerevisiae harboring cdc28-as at 2.5 uM using deletion pool construction by TAG microarray
# Saccharomyces cerevisiae [3] = assay: Suppression of HEM1 gene in Saccharomyces cerevisiae harboring cdc28-as transfected with 2 uM expression vector TEplac195 at 0.015% using multicopy pool construction by TAG microarray
# Saccharomyces cerevisiae [4] = assay: Suppression of HEM1 gene in Saccharomyces cerevisiae harboring cdc28-as at 0.002% using deletion pool construction by TAG microarray
# Saccharomyces cerevisiae [5] = assay: Antimicrobial activity against glc7-127 allele containing Saccharomyces cerevisiae harboring cdc28-as transfected with 2 uM expression vector TEplac195 at 2.5 nM using deletion pool construction
# Saccharomyces cerevisiae [6] = assay: Antimicrobial activity against glc7-129 allele containing Saccharomyces cerevisiae harboring cdc28-as transfected with 2 uM expression vector TEplac195 at 2.5 nM using deletion pool construction
# Saccharomyces cerevisiae [7] = assay: Suppression of TUB1 gene in Saccharomyces cerevisiae harboring cdc28-as transfected with 2 uM expression vector TEplac195 at 33.2 uM using multicopy pool construction by TAG microarray
# Saccharomyces cerevisiae [8] = assay: Suppression of TUB2 gene in Saccharomyces cerevisiae harboring cdc28-as transfected with 2 uM expression vector TEplac195 at 33.2 uM using multicopy pool construction by TAG microarray
# Saccharomyces cerevisiae [9] = assay: Suppression of TUB2 gene in Saccharomyces cerevisiae harboring cdc28-as at 15 uM using deletion pool construction by TAG microarray
# Saccharomyces cerevisiae [10] = assay: Suppression of TUB1 gene in Saccharomyces cerevisiae harboring cdc28-as at 15 uM using deletion pool construction by TAG microarray
# Saccharomyces cerevisiae [11] = assay: Antimicrobial activity against glc7-127 allele containing Saccharomyces cerevisiae harboring cdc28-as transfected with 2 uM expression vector TEplac195 at 25 nM using deletion pool construction
# Saccharomyces cerevisiae [12] = assay: Antimicrobial activity against glc7-129 allele containing Saccharomyces cerevisiae harboring cdc28-as transfected with 2 uM expression vector TEplac195 at 25 nM using deletion pool construction
# Saccharomyces cerevisiae [13] = assay: Suppression of IFA38 gene in Saccharomyces cerevisiae harboring cdc28-as transfected with 2 uM expression vector TEplac195 at 500 nM using multicopy pool construction by TAG microarray
# Saccharomyces cerevisiae [14] = assay: Suppression of CSH1 gene in Saccharomyces cerevisiae harboring cdc28-as transfected with 2 uM expression vector TEplac195 at 500 nM using multicopy pool construction by TAG microarray
# Saccharomyces cerevisiae [15] = assay: Suppression of TOS1 gene in Saccharomyces cerevisiae harboring cdc28-as transfected with 2 uM expression vector TEplac195 at 500 nM using multicopy pool construction by TAG microarray
# Saccharomyces cerevisiae [16] = assay: Suppression of CDC28 gene in Saccharomyces cerevisiae harboring cdc28-as transfected with 2 uM expression vector TEplac195 at 500 nM using multicopy pool construction by TAG microarray
smiles,measurement,setting,value
C/C1=C/C(=O)O[C@@H]2C[C@@H](CC[C@H](C)/C=C\C=C\CC1)O[C@@](O)([C@@H]1CSC(=O)N1)C2,Activity,Saccharomyces cerevisiae [1],Active
same,Activity,Saccharomyces cerevisiae [2],Active
COS(C)(=O)=O,Activity,Saccharomyces cerevisiae [3],Active
same,Activity,Saccharomyces cerevisiae [4],Active
C[C@@]12C(=O)OC(=O)[C@]1(C)[C@H]1CC[C@@H]2O1,Activity,Saccharomyces cerevisiae [5],Active
same,Activity,Saccharomyces cerevisiae [6],inactive
COC(=O)Nc1nc2cc(C(=O)c3cccs3)ccc2[nH]1,Activity,Saccharomyces cerevisiae [7],Active
same,Activity,Saccharomyces cerevisiae [8],Active
same,Activity,Saccharomyces cerevisiae [9],Active
same,Activity,Saccharomyces cerevisiae [10],Active
COC[C@@H]([C@H](O)[C@H](O)C(=O)NCC[C@H](C)c1nc(/C=C/C[C@@H]2O[C@]3(C[C@@H](O)[C@@H]2C)O[C@H]([C@H](C[C@H](O)[C@H](C)[C@H](O)[C@H](C)/C=C(C)/C(C)=C/C=C/C(C)=C\C#N)OC)[C@H](OP(=O)(O)O)C3(C)C)co1)N(C)C,Activity,Saccharomyces cerevisiae [11],inactive
same,Activity,Saccharomyces cerevisiae [12],Active
CC(C)(C)n1nc(Cc2cccc3ccccc23)c2c(N)ncnc21,Activity,Saccharomyces cerevisiae [13],Active
same,Activity,Saccharomyces cerevisiae [14],Active
same,Activity,Saccharomyces cerevisiae [15],Active
same,Activity,Saccharomyces cerevisiae [16],Active

# — ChEMBL document CHEMBL1250447, “An integrated platform of genomic assays reveals small-molecule bioactivities” (Nat Chem Biol, 2008)
